Where no end group is shown, it is not given here.
Molecular target: T1, heat shock 70 kDa protein 8 isoform 1 (SEQ ID NO: 52) (Homo sapiens, UniProt P11142)
T1 construct: endogenous in cells; host or cells: neutrophil-like differentiated HL-60 cells
Experiment: chemical crosslinking experiment, streptavidin beads, electrophoresis (receptor identification)
Format: binding
Conditions: differentiated HL-60 cells
Description: Then, in order to identify directly the receptor molecules to which these functional peptides are bound, the following chemical crosslinking experiment was performed. That is, the HL-60 cells differentiated into the neutrophil-like cells were suspended in HBHS (not containing 0.1% BSA). The suspension was centrifuged (1,000 rpm, 5 minutes, 4° C.) and the supernatant was removed. The cells were suspended again in the HBHS not containing BSA so as to have the cell density of 5.6×10^6 cells/ml. The obtained cell suspension was preincubated at 37° C. for 10 minutes at first, and 1/10 volume of mitocryptide-3 and -5, [Cys^0]mitocryptide-3, [Cys^0]mitocryptide-5, [Cys^24]mitocryptide-3, and peptides obtained by introducing biotin into the N terminals thereof (N-biotinyl-mitocryptide-3, N-biotinyl-mitocryptide-5, N-biotinyl-[Cys^0]mitocryptide-3, N-biotinyl-[Cys^0]mitocryptide-5, and N-biotinyl-[Cys^24]mitocryptide-3) were added to have the final concentration of 10 μM, followed by incubation at 37° C. for 30 minutes. After that, the cell suspension was centrifuged (5,000 rpm, 4° C., 1 minute) and the supernatant was removed. The resultant cells were resuspended in HBHS not containing BSA and centrifuged again to wash the cells. 1 ml of a buffer for dissolving cells (100 mM NaCl, 20 mM Tris-HCl, 1 mM EDTA, 77.5 mTIU/ml aprotinin, 1 μM leupeptin, 1 μg/ml pepstatin A, 1 μg/ml phosphoramidone, 1% CHAPS, pH 7.5) with respect to 1 ml of the original cell suspension was added to the cell precipitate, and the mixture was incubated at 4° C. for 30 minutes to dissolve the cells, thereby a cell lysate was prepared. The cell lysate was centrifuged (15,000 rpm, 4° C., 15 minutes) and the supernatant was centrifuged again in the same condition. The obtained supernatant was incubated with streptavidin beads at 4° C. for 30 minutes, then, the beads were washed by centrifugation with the buffer for dissolving cells three times. Further, the beads were treated by heat at 100° C. for 10 minutes in the buffer for dissolving cells, and the mixture was centrifuged. The obtained supernatant was subjected to an SDS gel electrophoresis to separate the contained protein. Then, the gel was stained by silver stain method, thereby the proteins were analyzed. […] As a result, two specific spots were detected (FIG. 15-A). Therefore, the protein was extracted and degraded with trypsin, and then, the degraded proteins were analyzed by mass spectrometry.

T1 sequence (P11142 whole entry, canonical isoform): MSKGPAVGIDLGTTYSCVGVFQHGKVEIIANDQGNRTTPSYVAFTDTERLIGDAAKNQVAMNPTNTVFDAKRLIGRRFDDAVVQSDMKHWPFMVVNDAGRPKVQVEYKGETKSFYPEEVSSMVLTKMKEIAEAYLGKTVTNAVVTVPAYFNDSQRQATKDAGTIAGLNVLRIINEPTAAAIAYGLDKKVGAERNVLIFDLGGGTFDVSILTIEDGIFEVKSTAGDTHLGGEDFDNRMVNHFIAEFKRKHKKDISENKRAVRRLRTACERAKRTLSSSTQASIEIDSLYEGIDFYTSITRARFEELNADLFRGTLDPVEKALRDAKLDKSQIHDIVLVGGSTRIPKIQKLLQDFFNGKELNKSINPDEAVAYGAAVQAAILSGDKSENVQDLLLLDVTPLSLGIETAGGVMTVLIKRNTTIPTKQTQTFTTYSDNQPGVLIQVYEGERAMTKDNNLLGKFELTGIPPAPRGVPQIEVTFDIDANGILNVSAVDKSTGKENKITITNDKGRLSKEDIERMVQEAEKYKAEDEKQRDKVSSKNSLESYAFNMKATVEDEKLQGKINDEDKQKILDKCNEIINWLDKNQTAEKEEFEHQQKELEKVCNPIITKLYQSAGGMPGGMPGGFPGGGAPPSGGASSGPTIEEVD

In the case of MLWNLLALHQIGQRTISTASHRH [No. 019], the “competition for binding of the protein to N-biotinyl-[Cys^0]mitocryptide-5” value is reported as “competitive”.

Reference: patent publication US7893199B2, “Peptides having neutrophil-stimulating activity” (National University Corporation Gunma University, priority 2006, dated 2011)
